# Assay results from US8703811B2, “Small molecule inhibitors of Plasmodium falciparum dihydroorotate dehydrogenase” (Genzyme Corporation, priority 2008, dated 2014).
# Like-named read-outs stand apart in the source and are kept apart here.
# Assays:
# pfDHODH = pfDHODH (Plasmodium falciparum (isolate 3D7), UniProt Q08210); assay: DHODH chromogen reduction (DCIP) assay, pfDHODH; type: biochemical, P. falciparum; details: for IC50: read-out: pfDHODH IC50
# Solubility measurement = type: physicochemical
# From the text: Many standard techniques are known in the art to establish the solubility of a compound in a particular solvent. The following description is one such technique that could be used to determine the solubility: Equilibrium solubility measurements start with the solid form of the compound (crystalline form preferred). The powder is physically mixed with an aqueous buffer (defined pH) until equilibrium is reached. Either centrifugation or filtration can be used to separate the solution from the remaining solid. The amount dissolved in the solution can be determined by any one of many known methods including HPLC or UV/Vis spectroscopic techniques.
# Permeability = type: in vitro ADME; details: for Papp: Caco-2
# Description: Permeability assays using the Caco-2 colon carcinoma cell line are being used throughout the pharmaceutical industry to estimate the ability of potential drug compounds to cross the intestinal epithelium. Caco-2 cell permeability studies are performed using Caco-2 cell monolayers grown on microporous membranes in multiwell insert systems. With the inserts suspended in the wells of multiwell plates, test compounds can be added to either the upper (apical) or lower (basolateral) chamber to measure permeability in the absorptive (apical to basolateral) or secretive (basolateral to apical) directions. Samples are then taken from the opposite chamber at various time intervals to measure the amount of test compound that has crossed the cell monolayer. A representative method to generate permeability data similar to that in Table 3 can be found in Alsenz, J; Haenel, E. “Development of a 7-Day, 96-Well Caco-2 Permeability Assay with High-Throughput Direct UV Compound Analysis.” Pharmaceutical Research 2003 20(12): p 1961-1969.
# Parallel artificial membrane permeability assay (PAMPA) utilizes a simple phospholipid-coated filter disc to measure membrane permeability. It was developed as an alternative to the low throughput. Caco-2 cell permeability assay used to correlate passive permeability with in vivo oral absorption. A representative publication disclosing this method is Kerns, E H; Di, L; Petusky, S; Farris, M; Ley, R; Jupp, P. “Combined application of parallel artificial membrane permeability assay and Caco-2 permeability assays in drug discovery.” J. Pharma Sci. 2004, 93 (6), pages 1440-53.
# Cell culture methods (e.g. Caco-2, HT-29 and MDC) and physicochemical methods such as PAMPA and immobilized artificial membrane (IAM) columns are known in the art and can be used to obtain data such as that in Table 3. Hidalgo, I J; “Assessing the absorption of new pharmaceuticals.” Curr Top Med. Chem. 2001 November; 1(5): p 385-401.
# [1] = test system: Renal Proximal Tubule Epithelial Cells; assay: Renal Proximal Tubule Epithelial Cell Toxicity Screen; type: cell-based
# In short: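 Normal renal epithelial cells seeded at 1.5×10^4 cells/mL, grown 24 h at 37 °C/5% CO2, then exposed to compounds for 96 h; a T=0 plate was read at dosing. Viability by Alamar Blue fluorescence after 4 h, with Tween 20 and DMSO wells as positive and negative controls.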
# Cytochrome P450 1A2 = Cytochrome P450 1A2 (Homo sapiens (Human), UniProt P05177); type: in vitro ADME
# From the text: Rapid screening for cytochrome P450 inhibitors is part of the current paradigm for avoiding development of drugs likely to give clinical pharmacokinetic drug-drug interactions and associated toxicities. There are commercially available assays for such screenings. For example, BD Biosciences (http://www.bdbiosciences.com/index.shtml) provides a technical bulletin describing a detailed, step-by-step procedure for the performance of the high throughput cytochrome P450 inhibition testing method.
# Hepatic clearance, human = type: in vitro ADME
# From the text: (§1) Clearance of drug by the liver will depend on the rate of delivery of drug to the liver (the hepatic blood flow) and on the efficiency of removal of drug which is presented to it (the extraction ratio). The hepatic clearance of compounds can be determined by standard methods known in the art. Such methods are described in, for example, Naritomi, Y; Terashita, S; Kagayama, A; Sugiyama, Y. “Utility of Hepatocytes in Predicting Drug Metabolism: Comparison of Hepatic Intrinsic Clearance in Rats and Humans in Vivo and in Vitro.” 2003, 31 (5): pages 580-588.
# Hepatic clearance, rat = type: in vitro ADME
# From the text: as §1
# [2] = Table 3, DCIP assay, 20 nM pfDHODH
# [3] = aqueous buffer, thermodynamic from solid, read-out: Solubility
# Chain of pfDHODH (Q08210 159-565 limits assumed): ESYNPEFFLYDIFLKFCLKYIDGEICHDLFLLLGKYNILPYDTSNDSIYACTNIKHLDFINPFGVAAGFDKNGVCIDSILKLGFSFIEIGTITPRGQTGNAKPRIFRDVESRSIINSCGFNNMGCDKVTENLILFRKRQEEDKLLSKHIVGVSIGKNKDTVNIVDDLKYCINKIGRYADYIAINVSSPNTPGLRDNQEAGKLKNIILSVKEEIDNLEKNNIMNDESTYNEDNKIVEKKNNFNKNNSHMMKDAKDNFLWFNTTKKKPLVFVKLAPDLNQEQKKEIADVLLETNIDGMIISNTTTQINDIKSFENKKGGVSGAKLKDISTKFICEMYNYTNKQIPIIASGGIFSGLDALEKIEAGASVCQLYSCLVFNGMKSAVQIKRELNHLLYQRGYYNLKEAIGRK
# Chain of Cytochrome P450 1A2 (P05177 whole entry): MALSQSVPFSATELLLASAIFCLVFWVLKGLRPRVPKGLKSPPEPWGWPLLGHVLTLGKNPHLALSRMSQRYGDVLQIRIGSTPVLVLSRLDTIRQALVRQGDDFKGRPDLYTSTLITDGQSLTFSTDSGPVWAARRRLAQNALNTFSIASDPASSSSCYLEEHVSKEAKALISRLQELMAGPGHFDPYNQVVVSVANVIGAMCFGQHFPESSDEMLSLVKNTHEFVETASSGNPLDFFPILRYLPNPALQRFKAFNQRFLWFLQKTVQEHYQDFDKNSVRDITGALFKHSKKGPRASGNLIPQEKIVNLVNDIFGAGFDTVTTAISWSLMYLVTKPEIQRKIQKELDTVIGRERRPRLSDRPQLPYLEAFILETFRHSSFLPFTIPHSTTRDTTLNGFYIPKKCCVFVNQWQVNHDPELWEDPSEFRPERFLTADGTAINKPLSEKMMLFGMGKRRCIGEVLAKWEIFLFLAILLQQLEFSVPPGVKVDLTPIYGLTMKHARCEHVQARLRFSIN
compound,measurement,setting,value
5-(1H-indol-1-yl)-N-propylthiophene-2-carboxamide [Compound 7],IC50,pfDHODH; Table 2b,459 nM
same,IC50,pfDHODH; [2],460 nM
same,solubility,Solubility measurement,1 µg/mL
same,Permeability,Permeability,52 cm/sec × 10^−6
same,CC50,"[1]; 4 days exposure, Alamar Blue, read-out: Kidney Epithelial LC50",50000 nM
"CCCNC(=O)c1ccc(-n2c(C)nc3ccccc32)s1 [Compound 12, 5-(2-methyl-1H-benzo[d]imidazol-1-yl)-N-propylthiophene-2-carboxamide]",IC50,pfDHODH; Table 2b,172 nM
same,IC50,pfDHODH; [2],170 nM
same,solubility,Solubility measurement; [3],> 30 µg/mL
same,Papp,Permeability,65 ×10⁻⁶ cm/s
same,cytotoxicity in kidney epithelial cells,[1],No adverse cytotoxicity
same,"Cytochrome P450 Inhibition, 1A2",Cytochrome P450 1A2,>5.0 in 1A2 μM
same,microsomal CLint,"Hepatic clearance, human",33 µL/min/mg
same,microsomal CLint,"Hepatic clearance, rat",102 µL/min/mg
"CCCNC(=O)c1ccc(-n2cnc3ccccc32)s1 [Compound 11, 5-(1H-benzo[d]imidazol-1-yl)-N-propylthiophene-2-carboxamide]",IC50,pfDHODH; Table 2b,703 nM
same,IC50,pfDHODH; [2],700 nM
same,solubility,Solubility measurement; [3],> 30 µg/mL
same,Papp,Permeability,32 ×10⁻⁶ cm/s
same,"Cytochrome P450 Inhibition, 1A2",Cytochrome P450 1A2,>5.0 in 1A2 μM
same,microsomal CLint,"Hepatic clearance, human",49 µL/min/mg
same,microsomal CLint,"Hepatic clearance, rat",> 119 µL/min/mg
"CCCNC(=O)c1ccc(-n2c(C)cc3ccccc32)s1 [Compound 1, 5-(2-methyl-1H-indol-1-yl)-N-propylthiophene-2-carboxamide]",inhibition at 50 µM,"pfDHODH; 50 μM inhibitor, 200 μM L-DHO, 100 μM CoQD, 60 μM DCIP, read-out: % Inhibition of Product Formation Rate with 50 μM Inhibitor, CoQD",104%
same,IC50,"pfDHODH; DCIP assay, 200 μM L-DHO, 18 μM CoQD, 100 μM DCIP, 20 nM enzyme",42 ± 7 nM
same,IC50,pfDHODH; Table 2b,64 nM
same,IC50,pfDHODH; [2],70 nM
same,solubility,Solubility measurement; [3],0.9 µg/mL
